# Source: patent US9193720B2, “Pyridin-3-yl acetic acid derivatives as inhibitors of human immunodeficiency virus replication” (priority 2014, dated 2015)
# System: NL-RLuc virus
# Experiment: Inhibition of HIV Replication (NL-RLuc luciferase reporter virus in MT-2 cells)
# Format: cell-based
# Conditions: Human immunodeficiency virus 1, MT2, 120 h
# Description: Inhibition of HIV Replication:
# A recombinant NL-RLuc proviral clone was constructed in which a section of the nef gene from NL4-3 was replaced with the Renilla Luciferase gene. This virus is fully infectious and can undergo multiple cycles of replication in cell culture. In addition, the luciferous reporter provides a simple and easy method for quantitating the extent of virus growth and consequently, the antiviral activity of test compounds. The plasmid pNLRLuc contains the proviral NL-Rluc DNA cloned into pUC18 at the PvuII site. The NL-RLuc virus was prepared by transfection of 293T cells with the plasmid pNLRLuc. Transfections were performed using the LipofectAMINE PLUS kit from Invitrogen (Carlsbad, Calif.) according to the manufacturer and the virus generated was titered in MT-2 cells. For susceptibility analyses, the titrated virus was used to infect MT-2 cells in the presence of compound, and after 5 days of incubation, cells were processed and quantitated for virus growth by the amount of expressed luciferase. Assay media was RPMI 1640 supplemented with 10% heat inactivated fetal bovine serum (FBS), 100 units/ml penicillin G/100 units/ml streptomycin, 10 mM HEPES buffer pH 7.55 and 2 mM L-glutamine. The results from at least 2 experiments were used to calculate the EC50 values. Luciferase was quantitated using the Dual Luciferase kit from Promega (Madison, Wis.). Susceptibility of viruses to compounds was determined by incubation in the presence of serial dilutions of the compound. The 50% effective concentration (EC50) was calculated by using the exponential form of the median effect equation where (Fa)=1/[1+(ED50/drug conc.)^m] (Johnson V A, Byington R T. Infectivity Assay. In Techniques in HIV Research. ed. Aldovini A, Walker B D. 71-76. New York: Stockton Press. 1990).
row,SMILES,EC50 [nM]
1,"Cc1nc(C)c([C@H](OC(C)(C)C)C(=O)O)c(N2CCC(C)(C)CC2)c1-c1ccc(OC(C)Cc2ccc(F)cc2)cc1 (stereo partly drawn) [Example 22, (2S)-2-(tert-Butoxy)-2-(4-(4,4-dimethylpiperidin-1-yl)-5-(4-((1-(4-fluorophenyl)propan-2-yl)oxy)phenyl)-2,6-dimethylpyridin-3-yl)acetic acid]",7
2,"Cc1nc(C)c([C@H](OC(C)(C)C)C(=O)O)c(N2CCC(C)(C)CC2)c1-c1ccc(OCCc2ccc(F)cc2F)cc1 [Example 23, (S)-2-(tert-butoxy)-2-(5-(4-(2,4-difluorophenethoxy)phenyl)-4-(4,4-dimethylpiperidin-1-yl)-2,6-dimethylpyridin-3-yl)acetic acid]",5
3,"Cc1nc(C)c([C@H](OC(C)(C)C)C(=O)O)c(N2CCC(C)(C)CC2)c1-c1ccc(OCCc2ccc(F)c(F)c2)cc1 [Example 24, (S)-2-(tert-butoxy)-2-(5-(4-(3,4-difluorophenethoxy)phenyl)-4-(4,4-dimethylpiperidin-1-yl)-2,6-dimethylpyridin-3-yl)acetic acid]",3
4,"Cc1nc(C)c([C@H](OC(C)(C)C)C(=O)O)c(N2CCC(C)(C)CC2)c1-c1ccc(OCCc2cc(F)ccc2F)cc1 [Example 25, (S)-2-(tert-butoxy)-2-(5-(4-(2,5-difluorophenethoxy)phenyl)-4-(4,4-dimethylpiperidin-1-yl)-2,6-dimethylpyridin-3-yl)acetic acid]",3
5,"Cc1nc(C)c([C@H](OC(C)(C)C)C(=O)O)c(N2CCC(C)(C)CC2)c1-c1ccc(OCCc2ccc(Cl)cc2)cc1 [Example 26, (S)-2-(tert-butoxy)-2-(5-(4-(4-chlorophenethoxy)phenyl)-4-(4,4-dimethylpiperidin-1-yl)-2,6-dimethylpyridin-3-yl)acetic acid]",17
6,"Cc1nc(C)c([C@H](OC(C)(C)C)C(=O)O)c(N2CCC(C)(C)CC2)c1-c1ccc(OCCc2ccc(Cl)c(F)c2)cc1 [Example 27, (S)-2-(tert-butoxy)-2-(5-(4-(4-chloro-3-fluorophenethoxy)phenyl)-4-(4,4-dimethylpiperidin-1-yl)-2,6-dimethylpyridin-3-yl)acetic acid]",12
7,"Cc1ccc(CCOc2ccc(-c3c(C)nc(C)c([C@H](OC(C)(C)C)C(=O)O)c3N3CCC(C)(C)CC3)cc2)cc1 [Example 28, (S)-2-(tert-butoxy)-2-(4-(4,4-dimethylpiperidin-1-yl)-2,6-dimethyl-5-(4-(4-methylphenethoxy)phenyl)pyridin-3-yl)acetic acid]",19
8,"Cc1nc(C)c([C@H](OC(C)(C)C)C(=O)O)c(N2CCC(C)(C)CC2)c1-c1ccc(OCC(C)(C)c2ccc(Cl)cc2)cc1 [Example 29, (S)-2-(tert-butoxy)-2-(5-(4-(2-(4-chlorophenyl)-2-methylpropoxy)phenyl)-4-(4,4-dimethylpiperidin-1-yl)-2,6-dimethylpyridin-3-yl)acetic acid]",15
9,"Cc1nc(C)c([C@H](OC(C)(C)C)C(=O)O)c(N2CCC(C)(C)CC2)c1-c1ccc(OCCc2ccc3ccccc3c2)cc1 [Example 30, (S)-2-(tert-butoxy)-2-(4-(4,4-dimethylpiperidin-1-yl)-2,6-dimethyl-5-(4-(2-(naphthalen-2-yl)ethoxy)phenyl)pyridin-3-yl)acetic acid]",6
10,"Cc1nc(C)c([C@H](OC(C)(C)C)C(=O)O)c(N2CCC(C)(C)CC2)c1-c1ccc(OCCc2ccc(OCc3ccccc3)cc2)cc1 [Example 31, (S)-2-(5-(4-(4-(benzyloxy)phenethoxy)phenyl)-4-(4,4-dimethylpiperidin-1-yl)-2,6-dimethylpyridin-3-yl)-2-(tert-butoxy)acetic acid]",47
11,"Cc1nc(C)c([C@H](OC(C)(C)C)C(=O)O)c(N2CCC(C)(C)CC2)c1-c1ccc(OCC(C)c2ccc(F)cc2)cc1 (stereo partly drawn) [Example 32, (2S)-2-(tert-butoxy)-2-(4-(4,4-dimethylpiperidin-1-yl)-5-(4-(2-(4-fluorophenyl)propoxy)phenyl)-2,6-dimethylpyridin-3-yl)acetic acid]",11
12,"Cc1nc(C)c([C@H](OC(C)(C)C)C(=O)O)c(N2CCC(C)(C)CC2)c1-c1ccc(OCCc2ccccn2)cc1 [Example 33, (S)-2-(tert-butoxy)-2-(4-(4,4-dimethylpiperidin-1-yl)-2,6-dimethyl-5-(4-(2-(pyridin-2-yl)ethoxy)phenyl)pyridin-3-yl)acetic acid]",1
13,"CO[C@H](COc1ccc(-c2c(C)nc(C)c([C@H](OC(C)(C)C)C(=O)O)c2N2CCC(C)(C)CC2)cc1)c1ccccc1 [Example 34, (S)-2-(tert-butoxy)-2-(4-(4,4-dimethylpiperidin-1-yl)-5-(4-((S)-2-methoxy-2-phenylethoxy)phenyl)-2,6-dimethylpyridin-3-yl)acetic acid]",11
14,"CO[C@@H](COc1ccc(-c2c(C)nc(C)c([C@H](OC(C)(C)C)C(=O)O)c2N2CCC(C)(C)CC2)cc1)c1ccccc1 [Example 35, (S)-2-(tert-butoxy)-2-(4-(4,4-dimethylpiperidin-1-yl)-5-(4-((R)-2-methoxy-2-phenylethoxy)phenyl)-2,6-dimethylpyridin-3-yl)acetic acid]",13
15,"COc1cccc(CCOc2ccc(-c3c(C)nc(C)c([C@H](OC(C)(C)C)C(=O)O)c3N3CCC(C)(C)CC3)cc2)c1 [Example 36, (S)-2-(tert-butoxy)-2-(4-(4,4-dimethylpiperidin-1-yl)-5-(4-(3-methoxyphenethoxy)phenyl)-2,6-dimethylpyridin-3-yl)acetic acid]",2
16,"Cc1nc(C)c([C@H](OC(C)(C)C)C(=O)O)c(N2CCC(C)(C)CC2)c1-c1ccc(OCCc2ccncc2)cc1 [Example 37, (S)-2-(tert-butoxy)-2-(4-(4,4-dimethylpiperidin-1-yl)-2,6-dimethyl-5-(4-(2-(pyridin-4-yl)ethoxy)phenyl)pyridin-3-yl)acetic acid]",1
17,"Cc1nc(C)c([C@H](OC(C)(C)C)C(=O)O)c(N2CCC(C)(C)CC2)c1-c1ccc(OCCc2cccc3ccccc23)cc1 [Example 38, (S)-2-(tert-butoxy)-2-(4-(4,4-dimethylpiperidin-1-yl)-2,6-dimethyl-5-(4-(2-(naphthalen-1-yl)ethoxy)phenyl)pyridin-3-yl)acetic acid]",6
18,"Cc1nc(C)c([C@H](OC(C)(C)C)C(=O)O)c(N2CCC(C)(C)CC2)c1-c1ccc(OCCc2ccccc2)cc1 [Example 39, (S)-2-(tert-butoxy)-2-(4-(4,4-dimethylpiperidin-1-yl)-2,6-dimethyl-5-(4-phenethoxyphenyl)pyridin-3-yl)acetic acid]",2
19,"Cc1ncsc1CCOc1ccc(-c2c(C)nc(C)c([C@H](OC(C)(C)C)C(=O)O)c2N2CCC(C)(C)CC2)cc1 [Example 40, (S)-2-(tert-butoxy)-2-(4-(4,4-dimethylpiperidin-1-yl)-2,6-dimethyl-5-(4-(2-(4-methylthiazol-5-yl)ethoxy)phenyl)pyridin-3-yl)acetic acid]",1
20,"Cc1nc(C)c([C@H](OC(C)(C)C)C(=O)O)c(N2CCC(C)(C)CC2)c1-c1ccc(OCCc2cccnc2)cc1 [Example 41, (S)-2-(tert-butoxy)-2-(4-(4,4-dimethylpiperidin-1-yl)-2,6-dimethyl-5-(4-(2-(pyridin-3-yl)ethoxy)phenyl)pyridin-3-yl)acetic acid]",1
21,"Cc1nc(CCOc2ccc(-c3c(C)nc(C)c([C@H](OC(C)(C)C)C(=O)O)c3N3CCC(C)(C)CC3)cc2)cs1 [Example 42, (S)-2-(tert-butoxy)-2-(4-(4,4-dimethylpiperidin-1-yl)-2,6-dimethyl-5-(4-(2-(2-methylthiazol-4-yl)ethoxy)phenyl)pyridin-3-yl)acetic acid]",4
22,"Cc1nc(C)c([C@H](OC(C)(C)C)C(=O)O)c(N2CCC(C)(C)CC2)c1-c1ccc(OCc2cncs2)cc1 [Example 43, (S)-2-(tert-butoxy)-2-(4-(4,4-dimethylpiperidin-1-yl)-2,6-dimethyl-5-(4-(thiazol-5-ylmethoxy)phenyl)pyridin-3-yl)acetic acid]",14
23,"Cc1nc(C)c(COc2ccc(-c3c(C)nc(C)c([C@H](OC(C)(C)C)C(=O)O)c3N3CCC(C)(C)CC3)cc2)s1 [Example 44, (S)-2-(tert-butoxy)-2-(4-(4,4-dimethylpiperidin-1-yl)-5-(4-((2,4-dimethylthiazol-5-yl)methoxy)phenyl)-2,6-dimethylpyridin-3-yl)acetic acid]",12
24,"Cc1nc(-c2ccccc2)sc1COc1ccc(-c2c(C)nc(C)c([C@H](OC(C)(C)C)C(=O)O)c2N2CCC(C)(C)CC2)cc1 [Example 45, (S)-2-(tert-butoxy)-2-(4-(4,4-dimethylpiperidin-1-yl)-2,6-dimethyl-5-(4-((4-methyl-2-phenylthiazol-5-yl)methoxy)phenyl)pyridin-3-yl)acetic acid]",29
25,"COc1cccc(CCOc2ccc(-c3c(C)nc(C)c([C@H](OC(C)(C)C)C(=O)O)c3N3CCC(C)(C)CC3)cc2OCCc2cccc(OC)c2)c1 [Example 46, (S)-2-(5-(3,4-bis(3-methoxyphenethoxy)phenyl)-4-(4,4-dimethylpiperidin-1-yl)-2,6-dimethylpyridin-3-yl)-2-(tert-butoxy)acetic acid]",14
